Data as given in patent US5837548A, “Treatment of inflammation by inhibition of lipid body formation” (Beth Israel Hospital, priority 1995, dated 1998).

Test system: human eosinophils (PGE2 production)
Test: PGE2 production by human eosinophils (priming, A23187 stimulation, ELISA)
Assay type: cell-based
Details: 10 μg/mL pretreatment
Protocol: FIG. 2B is a graph illustrating the effect of arachidonic acid (AA) and oleic acid (OA) on induction of lipid body formation (black) and priming effects (white) for enhanced prostaglandin E2 (PGE2) by human eosinophils. Eosinophils (10^6 /mL) were stimulated for one hour with arachidonic acid (3.7, 7.5, 15 μM) or oleic acid (2.5, 5, 10 μM). Lipid bodies were enumerated using light microscopy following osmium staining. The concentration of PGE2 in the supernatant was measured by ELISA after incubation with A23187 (0.5 μM) for 15 minutes at 37° C. Data are expressed as mean from 2 independent assays performed in duplicate.
After the incubation time, a sample was taken for lipid body enumeration and the cells were washed in Ca^++ /Mg^++ free HBSS. Leukocytes were resuspended in 1 mL of HBSS containing Ca^++ /Mg^++ and then stimulated with A23187 (0.5 μM) for 15 min. The reaction was stopped on ice, and the samples were centrifuged at 1500 rpm for 10 min at 4° C. The concentrations of PGE2, LTB4, and LTC4 in the supernatants were assayed by ELISA according to the manufacturer's instructions (Cayman, Ann Arbor, Mich.).

Compound: CC(=O)Oc1ccccc1C(=O)O [aspirin]
- inhibition of PGE2 production: inhibited PGE2 production
